# Reference: US11389415B2, “Methods of regulating cannabinoid receptor activity-related disorders and diseases” (The United States of America as represented by the …, priority 2012, dated 2022)
# Columns and labels:
# GPR55 = GPR55 (Homo sapiens, UniProt Q9Y2T6); assay: GPR55 internalization assay in hGPR55-HEK293 cells; assay type: cell-based; settings: 1 μM pretreatment 45 minutes
# Experimental: GPR55 internalization assay. Endocytosis of GPR55 was observed following a previously described protocol with minor modifications (Henstridge et al., Br. J. Pharmacol. 160: 604-614, 2010). Briefly, hGPR55-HEK293 cells were grown on Lab-Tek II CC2 chamber slides (Thermo Scientific Nunc, Rochester, N.Y.) for 48 hours in regular media and then were serum starved for 1 hour. A preincubation with 1:1000 rabbit HA antibody (Covance, Md.) was performed in the presence of vehicle (0.1% DMSO) or 1 μM MNF in serum-free media for 45 minutes at 37° C. in the CO2 incubator. Cells were then washed extensively with PBS and treated with 5 μM 01602 in serum-free media for 20 minutes at 37° C. in the CO2 incubator. Subsequently, cells were washed three times, fixed in fresh 3.7% paraformaldehyde in PBS (10 min), and incubated with anti-rabbit Alexa Fluor 488 antibody (Molecular Probes, Eugene, Oreg.; 1:1000, 30 minutes). Cells were washed and fixed for a second time prior to permeabilization with 0.2% Triton X-100 (5 minutes). Incubation with anti-rabbit Alexa Fluor 568 antibody (Molecular Probes; 1:1000, 30 minutes) was carried out to determine the extent of internalized GPR55-HA antibody complex. […]
# HepG2 cells [1] = assay: Scratch wound-healing assay, HepG2 cells; assay type: cell-based, human; settings: HepG2, 1 μM
# Experimental: Scratch assays. These assays were carried out essentially as described previously (Fiori et al., Endocrinology 150: 2551-2560, 2009). In brief, cells were seeded in 12-well nontreated polystyrene cell culture plates with flat bottom (Greiner Bio-One, Monroe, N.C.). Once the cells became confluent, a scratch wound was made with a pipette tip and pictured immediately (time 0). […] Cell migration was examined at 12, 24, 36, 48 hours and 12, 18, 24, 48 hours after scratch for the HepG2 and PANC-1 cells, respectively. Images of the same field were taken every 3 hours to determine the rate of cell migration. Images were captured on an Axiovert 200 inverted microscope (Carl Zeiss, Thornwood, N.Y.) mounted with an AxioCam HRc digital camera (Carl Zeiss) and the measurement of scratch area was performed with ImageJ 1.46s software (National Institutes of Health, Bethesda, Md.). Each study was performed in duplicate dishes and repeated at least twice.
# CYP2D6 = target: T1, CYP2D6 (Homo sapiens, UniProt P10635); assay: CYP inhibition in human liver microsomes, CYP2D6; assay type: in vitro ADME; settings: 10 μM, 20 minutes, 37° C.
# T1 construct: from tissue; host or cells: human liver microsomes
# Experimental: Incubations containing known CYP inhibitors were also included as positive controls. Formation of the model substrate metabolites was measured by LC-MS/MS and compared to control incubations (incubation of substrates with microsomes and cofactors, no test articles or inhibitors). CYP activity in presence of test compound (MNF) that was less than 70% of control was considered significant. MNF (10 μM) inhibited CYP2D6 and CYP3A4 to less than 70% of the control. Further, the primary metabolite was determined to be O-demethylated-MNF. These studies indicate that MNF alters the metabolism of other drugs or endogenous compounds that are substrates for CYP2D6 and/or CYP3A4 isoforms, when present in the plasma or liver at 10 μM or higher.
# HepG2 cells [2] = assay: [3H]-Thymidine incorporation assay in HepG2 cells; assay type: cell-based, human; settings: 1 μM, 24 h
# Method in brief: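 HepG2 and U87MG cells (~50,000/well) were treated 24 hours at 37° C with test compounds in serum-free medium, then labelled 16 hours with 1 μCi [3H]-thymidine. Cells were lysed in 0.1N NaOH and incorporation measured by scintillation counting, expressed as CPM relative to control cells.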
# ERK1/2 = ERK1/2 phosphorylation (GPR55 downstream signaling) in HepG2 cells; assay type: cell-based, human
# Experimental: Western blot analysis. For detection of intracellular signaling proteins, cells were lysed in radioimmunoprecipitation buffer containing EGTA and EDTA (Boston BioProducts, Ashland, Mass.). The lysis buffer contained a protease inhibitor cocktail (Sigma-Aldrich) and phosphatase inhibitor cocktail (Calbiochem, San Diego, Calif.). Equivalent amount of proteins (14 and 54 μg/well for PANC-1 and HepG2 cells, respectively) were separated on 4 to 12% precast gels (Invitrogen, Carlsbad, Calif.) using SDS-polyacrylamide gel electrophoresis under reducing conditions and then electrophoretically transferred onto polyvinylidene fluoride membrane (Invitrogen). Western blots were performed according to standard methods, which involved blocking in 5% non-fat milk and incubated with the antibody of interest, followed by incubation with a secondary antibody conjugated with the enzyme horseradish perodixase. The detection of immunoreactive bands was performed by chemiluminescence using the ECL Plus Western Blotting Detection System (GE Healthcare, Piscataway, N.J.). The quantification of bands was done by volume densitometry by using ImageJ software. The rabbit polyclonal antibodies against EGFR were obtained from Cell Signaling Technology, Inc. (Beverly, Mass.) and the monoclonal anti-Hsp90 was purchased from Santa Cruz Biotechnology, Inc. (Santa Cruz, Calif.).
# Effect of MNF on O-1602-mediated increase in cell signaling. Serum-starved cells were pretreated in the absence or presence of 1 μM MNF for 10 minutes followed by a 10 minute incubation with 0, 2.5 and 10 μM O-1602 or 10% FBS, after which the levels of total ERK2 and phosphorylated forms of ERK1/2 (pErk1/2, Thr202/Tyr204), were determined by Western blotting technique. All primary antibodies were purchased from Cell Signaling Technology and used at a dilution recommended by the manufacturer.
# T1 sequence (P10635 whole entry): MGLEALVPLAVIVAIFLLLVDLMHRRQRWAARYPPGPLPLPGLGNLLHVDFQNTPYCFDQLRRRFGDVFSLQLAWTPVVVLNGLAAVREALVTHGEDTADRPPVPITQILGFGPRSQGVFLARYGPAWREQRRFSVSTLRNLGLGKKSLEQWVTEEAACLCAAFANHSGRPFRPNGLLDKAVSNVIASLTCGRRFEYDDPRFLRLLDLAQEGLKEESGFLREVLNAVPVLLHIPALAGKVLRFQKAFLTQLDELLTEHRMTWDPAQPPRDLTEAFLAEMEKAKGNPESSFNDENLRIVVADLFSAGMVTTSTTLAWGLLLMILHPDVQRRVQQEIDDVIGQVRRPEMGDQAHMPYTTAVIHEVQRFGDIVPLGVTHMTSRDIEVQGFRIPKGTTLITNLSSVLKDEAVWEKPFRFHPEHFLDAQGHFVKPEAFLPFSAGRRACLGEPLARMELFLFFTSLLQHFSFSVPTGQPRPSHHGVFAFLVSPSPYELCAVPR
# Chain of GPR55 (Q9Y2T6 whole entry): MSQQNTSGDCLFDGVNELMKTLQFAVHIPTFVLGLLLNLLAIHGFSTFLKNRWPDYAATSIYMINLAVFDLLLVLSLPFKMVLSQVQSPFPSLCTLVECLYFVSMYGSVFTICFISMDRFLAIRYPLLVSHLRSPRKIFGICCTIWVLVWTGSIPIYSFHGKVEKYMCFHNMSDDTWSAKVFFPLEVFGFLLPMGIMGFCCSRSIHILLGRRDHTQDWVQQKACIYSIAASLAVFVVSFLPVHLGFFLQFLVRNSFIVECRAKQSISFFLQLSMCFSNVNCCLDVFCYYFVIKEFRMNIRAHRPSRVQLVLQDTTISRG
compound,measurement,setting,value
"COc1ccc(C[C@@H](C)NC[C@H](O)c2cc(O)cc(O)c2)c2ccccc12 [(R,R′)-MNF, (R,R′)-4′-methoxy-1-naphthylfenoterol]",effect on O-1602-induced GPR55 internalization,GPR55,blocked by pretreatment with MNF
same,"cell motility, compound alone",HepG2 cells [1],had no effect on the motility of HepG2 cells
same,effect on AM251-mediated increase in cell motility,HepG2 cells [1]; AM251 1 μM,significant inhibitory effect toward AM251-mediated increase in cell motility
same,effect on wound closure evoked by O-1602,HepG2 cells [1]; O-1602 1 μM,absent in HepG2 cells
same,CYP2D6 activity in presence of test compound,CYP2D6,less than 70 % of the control
same,% Change in HepG2 cells ([3H]-thymidine incorporation),HepG2 cells [2],−59.4%
same,effect on O-1602-mediated ERK phosphorylation,"ERK1/2; HepG2, 1 μM pretreatment 10 minutes",abrogated O-1602 responsiveness
same,effect on serum-induced ERK phosphorylation,"ERK1/2; HepG2, 1 μM pretreatment, 10% FBS",potently inhibited serum-induced ERK phosphorylation in both cell lines
